Key:
mouse Constipation Model = assay: First animal trial: constipation experiment (Constipation Model, diphenoxylate 0.50 g/l); assay type: in vivo, Kunmin male mice; conditions: mean ± SD, n=10
Text: (§1) Experimental animals: 100 Kunmin male mice (class two) were purchased from the animal center in the Academy of Military Medical Sciences of the Chinese PLA, with a weight of 16 to 18 g. • Group 1: 50 mice were randomly divided into 5 experimental groups each of 10 mice (negative control group, model control group and three dosage groups), to test small intestine motility. • Group 2: 50 mice were randomly divided into 5 experimental groups each of 10 mice (negative control group, model control group and three dosage groups), to measure the following parameters: time of first melena defecation, the number of faeces pellets, the weight of faeces, and to observe the shape of the faeces. Number of qualitative qualification is SCXK M 2002-001.
For this experiment, the dosage was set at 10 times that of the recommended dosage, namely 0.29 g/kgBW per day (4 capsules). The experiment was designed with a low dosage group (0.145 g/kgBW) (2 capsules) and a high dosage group (0.87 g/kgBW) (12 capsules). The kiwifruit extract was dissolved by gentle agitation into sterile distilled water. For both the negative control group (0 g/kgBW) and the model control group sterile distilled water was used as the treatment. Oral intubation was used to administer the dose to the mice, at a measured quantity of 20 ml/kgBW.
Parameters measured in the animal trial were time of defecation, the number of faeces pellets, the weight of the faeces, and visual observation of the shape of the faeces
The different doses of kiwifruit composition were orally administered to the mice, and the shape of the faeces during the eight day feeding trial was observed. […] The mice in the Peristaltic Inhibition Model control group and the three dose groups were orally administered 0.50 g/l of diphenoxylate in the calculated volume of 20 ml/kg BW, whilst the negative group were given an equivalent volume of water. […] The time of the first melena defecation was recorded, along with the number of faecal pellets within 5 hours and the weight of the faeces, as well as the shape of the faeces.

[1] = test system: mouse small intestine motility; assay: First animal trial: small intestine motility experiment (Peristaltic Inhibition Model, diphenoxylate 0.25 g/l); assay type: in vivo, Kunmin male mice; conditions: model control: 0.25 g/l diphenoxylate oral, 20 ml/kg BW; mean ± SD, n=10; P<0.01 vs negative control
Text: as §1, with “Number of qualitative qualification is SCXK M 2002-001.” left out
For this experiment, the dosage was set at 10 times that of the recommended dosage, namely 0.29 g/kgBW per day (4 capsules). […] Oral intubation was used to administer the dose to the mice, at a measured quantity of 20 ml/kgBW.
8 days after oral administration of the different treatments, each group was fasted for 16 hours (with free access to drinking water). Mice in the Peristaltic Inhibition Model control group and the three dose groups were orally administered 0.25 g/l, diphenoxylate at a measured quantity of 20 ml/kg BW. […] The 0 g/kg BW group (negative control group and model control group) were orally administered blank inks with a measured quantity of 20 ml/kg BW. […]

[2] = model control: 0.50 g/l diphenoxylate oral, 20 ml/kg BW, P 0.000 vs negative control

CCOC(=O)C1(c2ccccc2)CCN(CCC(C#N)(c2ccccc2)c2ccccc2)CC1 [diphenoxylate, Diphenoxylate] was tested. Which “Number of faeces pellets defecated within 5 hours (grain)” value (mouse Constipation Model; [2]) did it give?
Its value is 25 ± 16 grain.

What about the “Weight of faeces defecated within 5 hours” value (mouse Constipation Model; [2]) of the same compound?
The value was 0.47 ± 0.26 grain.

What about the “Time of first melena defecation” value (mouse Constipation Model; model control: diphenoxylate oral, 20 ml/kg BW (0.50 g/l, 0.25 g/L elsewhere in the source), P<0.01 vs negative control) of the same compound?
Its value is 231.7 ± 81.7 min.

And the “Ink Progression (%)” value [1]?
Its value is 33.8 ± 7.0 %.

Source: patent publication US20100143319A1, “KIWIFRUIT COMPOSITIONS” (priority 2007, published 2010)
